Kd data for 21 compounds are collected here from ChEMBL document CHEMBL3991601, “The target landscape of clinical kinase drugs” (Science, 2017).

SMILES strings stand for the structures. Where a name gives a salt, the structure may show the parent alone. Activity calls are given as the source filed them. A value given as a limit tells only on which side of the number the result lay.

Test [1] concerns the target T1, Serine/threonine-protein kinase NLK (Homo sapiens, UniProt Q9UBE8).
T1 sequence (Q9UBE8 whole entry): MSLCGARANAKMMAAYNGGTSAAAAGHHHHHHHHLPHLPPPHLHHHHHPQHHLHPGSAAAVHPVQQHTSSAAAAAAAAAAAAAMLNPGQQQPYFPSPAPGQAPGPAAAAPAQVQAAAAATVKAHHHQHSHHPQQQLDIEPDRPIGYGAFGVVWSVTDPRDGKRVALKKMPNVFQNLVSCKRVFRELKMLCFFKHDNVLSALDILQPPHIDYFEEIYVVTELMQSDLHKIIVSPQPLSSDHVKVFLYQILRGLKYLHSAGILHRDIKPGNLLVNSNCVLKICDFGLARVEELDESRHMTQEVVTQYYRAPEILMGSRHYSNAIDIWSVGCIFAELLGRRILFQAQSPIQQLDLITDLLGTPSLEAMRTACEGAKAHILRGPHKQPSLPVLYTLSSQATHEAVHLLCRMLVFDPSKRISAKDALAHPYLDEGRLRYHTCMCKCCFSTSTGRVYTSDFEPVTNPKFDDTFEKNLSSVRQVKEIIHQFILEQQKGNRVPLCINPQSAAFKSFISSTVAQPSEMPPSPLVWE

Test [2] has as its target T2, Serine/threonine-protein kinase Nek2 (Homo sapiens, UniProt P51955).
T2 sequence (P51955 whole entry): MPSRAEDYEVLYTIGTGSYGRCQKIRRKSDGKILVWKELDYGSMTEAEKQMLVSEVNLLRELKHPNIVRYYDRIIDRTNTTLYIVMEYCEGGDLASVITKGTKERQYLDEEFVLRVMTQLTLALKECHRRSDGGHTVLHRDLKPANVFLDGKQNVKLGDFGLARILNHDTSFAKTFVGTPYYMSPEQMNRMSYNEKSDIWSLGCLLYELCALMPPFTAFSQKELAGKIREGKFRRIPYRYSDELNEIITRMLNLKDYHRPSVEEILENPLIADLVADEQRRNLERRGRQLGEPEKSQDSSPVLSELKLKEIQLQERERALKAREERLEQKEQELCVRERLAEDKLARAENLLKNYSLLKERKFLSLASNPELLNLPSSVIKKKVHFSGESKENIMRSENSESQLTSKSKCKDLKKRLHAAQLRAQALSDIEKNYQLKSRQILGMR

In test [3] the target is Mitogen-activated protein kinase kinase kinase kinase 4 (Homo sapiens, UniProt O95819).
Test [4] addresses T3, Thyroid hormone receptor-associated protein 3 (Homo sapiens, UniProt Q9Y2W1).
T3 sequence (Q9Y2W1 whole entry): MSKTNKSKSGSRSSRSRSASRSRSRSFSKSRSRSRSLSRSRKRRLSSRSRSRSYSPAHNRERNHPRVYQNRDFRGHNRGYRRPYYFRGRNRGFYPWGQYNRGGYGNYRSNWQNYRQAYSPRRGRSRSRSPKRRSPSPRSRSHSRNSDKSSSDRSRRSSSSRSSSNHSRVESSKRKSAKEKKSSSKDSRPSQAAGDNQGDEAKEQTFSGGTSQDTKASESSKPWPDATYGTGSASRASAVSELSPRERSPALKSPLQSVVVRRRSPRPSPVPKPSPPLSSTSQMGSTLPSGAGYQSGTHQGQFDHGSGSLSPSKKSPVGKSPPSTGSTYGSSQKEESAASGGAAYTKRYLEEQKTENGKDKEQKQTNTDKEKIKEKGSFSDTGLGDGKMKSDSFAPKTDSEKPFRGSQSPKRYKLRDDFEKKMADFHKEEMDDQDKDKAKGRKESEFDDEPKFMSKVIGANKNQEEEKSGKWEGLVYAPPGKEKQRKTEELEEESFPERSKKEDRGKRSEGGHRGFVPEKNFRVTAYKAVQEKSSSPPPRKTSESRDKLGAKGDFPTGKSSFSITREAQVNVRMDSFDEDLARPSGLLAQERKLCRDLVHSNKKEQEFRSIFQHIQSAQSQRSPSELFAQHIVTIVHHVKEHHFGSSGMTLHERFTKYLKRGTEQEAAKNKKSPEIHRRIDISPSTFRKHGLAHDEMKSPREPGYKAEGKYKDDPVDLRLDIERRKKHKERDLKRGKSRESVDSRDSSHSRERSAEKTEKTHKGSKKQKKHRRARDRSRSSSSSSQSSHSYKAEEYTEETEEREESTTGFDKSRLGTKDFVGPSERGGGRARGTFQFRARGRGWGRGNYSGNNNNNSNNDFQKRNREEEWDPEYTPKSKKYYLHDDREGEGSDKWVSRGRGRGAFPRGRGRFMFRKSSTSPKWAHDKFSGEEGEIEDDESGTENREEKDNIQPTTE

For test [5], the target named is T4, Tyrosine--tRNA ligase, cytoplasmic (Homo sapiens, UniProt P54577).
T4 sequence (P54577 whole entry): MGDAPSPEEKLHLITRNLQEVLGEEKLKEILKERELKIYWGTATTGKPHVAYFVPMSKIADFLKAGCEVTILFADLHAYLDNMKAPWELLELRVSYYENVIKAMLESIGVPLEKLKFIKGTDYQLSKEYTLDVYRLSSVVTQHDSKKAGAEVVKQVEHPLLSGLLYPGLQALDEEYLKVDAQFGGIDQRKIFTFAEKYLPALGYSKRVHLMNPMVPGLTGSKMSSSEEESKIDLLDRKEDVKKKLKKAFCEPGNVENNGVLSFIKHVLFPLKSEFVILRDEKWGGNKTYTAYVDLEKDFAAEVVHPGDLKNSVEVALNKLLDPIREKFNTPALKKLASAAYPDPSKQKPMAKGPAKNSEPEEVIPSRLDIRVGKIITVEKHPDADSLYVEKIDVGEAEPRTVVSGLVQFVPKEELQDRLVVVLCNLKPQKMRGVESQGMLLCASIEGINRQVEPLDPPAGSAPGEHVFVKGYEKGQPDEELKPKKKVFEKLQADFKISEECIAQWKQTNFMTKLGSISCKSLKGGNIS
Also: in the data inactive means no Kd found up to 30 µM.

Sequence of Mitogen-activated protein kinase kinase kinase kinase 4 (O95819 whole entry): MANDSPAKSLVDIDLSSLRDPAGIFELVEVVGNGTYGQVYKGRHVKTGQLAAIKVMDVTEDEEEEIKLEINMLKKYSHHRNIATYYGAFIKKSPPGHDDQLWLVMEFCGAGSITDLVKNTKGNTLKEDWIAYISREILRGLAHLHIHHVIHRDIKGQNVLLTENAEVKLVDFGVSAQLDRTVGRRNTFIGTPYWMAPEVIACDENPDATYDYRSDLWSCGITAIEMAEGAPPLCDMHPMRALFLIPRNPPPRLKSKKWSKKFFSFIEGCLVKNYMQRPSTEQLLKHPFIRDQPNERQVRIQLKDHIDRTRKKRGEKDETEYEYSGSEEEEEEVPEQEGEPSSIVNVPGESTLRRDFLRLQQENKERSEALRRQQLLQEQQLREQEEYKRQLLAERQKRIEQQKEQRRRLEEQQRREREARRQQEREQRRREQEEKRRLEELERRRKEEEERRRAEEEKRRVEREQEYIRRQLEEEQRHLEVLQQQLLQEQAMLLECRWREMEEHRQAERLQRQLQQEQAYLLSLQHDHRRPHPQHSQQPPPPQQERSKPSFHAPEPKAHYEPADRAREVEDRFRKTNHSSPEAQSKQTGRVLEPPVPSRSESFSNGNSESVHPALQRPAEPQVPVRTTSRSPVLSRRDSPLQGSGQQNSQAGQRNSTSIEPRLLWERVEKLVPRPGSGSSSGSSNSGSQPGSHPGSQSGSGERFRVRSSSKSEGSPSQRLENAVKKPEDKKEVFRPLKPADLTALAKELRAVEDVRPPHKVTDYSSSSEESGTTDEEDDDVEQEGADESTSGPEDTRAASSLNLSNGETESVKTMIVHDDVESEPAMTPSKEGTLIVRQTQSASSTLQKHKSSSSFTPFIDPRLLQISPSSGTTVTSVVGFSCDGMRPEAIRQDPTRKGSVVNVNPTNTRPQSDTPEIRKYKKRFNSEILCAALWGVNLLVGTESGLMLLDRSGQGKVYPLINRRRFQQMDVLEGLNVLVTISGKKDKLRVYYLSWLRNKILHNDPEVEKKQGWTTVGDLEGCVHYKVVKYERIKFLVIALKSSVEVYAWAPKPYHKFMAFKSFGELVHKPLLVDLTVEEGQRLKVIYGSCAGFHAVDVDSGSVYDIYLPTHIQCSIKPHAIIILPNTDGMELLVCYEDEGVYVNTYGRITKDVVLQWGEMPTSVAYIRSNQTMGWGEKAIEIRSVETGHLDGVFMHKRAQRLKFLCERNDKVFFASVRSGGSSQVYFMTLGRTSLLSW

For the compound `C[C@H]1CNCCCN1S(=O)(=O)c1cccc2cncc(F)c12`, the Kd in test [1], in test [2], in test [3] and in test [4] was > 30 µM (inactive) throughout.

For the compound `CCNC(=O)C#Cc1ccc2c(c1)NC(=O)/C2=C(\Nc1ccc(CN(C)C)cc1)c1ccccc1`, the Kd in test [1], in test [2], in test [5], in test [3] and in test [4] was > 30 µM (inactive) throughout.

With `C=CC(=O)N1CCC[C@H](n2c(=O)n(-c3ccc(Oc4ccccc4)cc3)c3c(N)ncnc32)C1`, the Kd in test [1], in test [2], in test [5], in test [3] and in test [4] was > 30 µM (inactive) throughout.

As to `Cc1nc2cc(-c3nn(C(C)C)c4ncnc(N)c34)ccc2o1`, the Kd (in general, the equilibrium constant for the complex coming apart) in test [1] is 0.449 µM (active); in test [2] it was > 30 µM (inactive); in test [5] it was > 30 µM (inactive); in test [4], > 30 µM (inactive).

Turning to `COCc1c(-c2ccc(NC(=O)Nc3cc(C(F)(F)F)ccc3F)c(F)c2)c2c(N)ncnn2c1CN1CCOCC1`, the Kd in test [1], in test [2], in test [5], in test [3] and in test [4] was > 30 µM (inactive) each time.

Regarding `Cc1nc(NC(=O)N2CCC[C@H]2C(N)=O)sc1-c1ccnc(C(C)(C)C(F)(F)F)c1` [ALPELISIB], the Kd in test [2], in test [5], in test [3] and in test [4] was > 30 µM (inactive) throughout.

For `Cc1csc(-c2nnc(Nc3ccc(Oc4ncccc4-c4ccnc(N)n4)cc3)c3ccccc23)c1` [AMG-900], the Kd in test [1] is > 30 µM (inactive); in test [2], > 30 µM (inactive); in test [5], > 30 µM (inactive); in test [3], > 30 µM (inactive); in test [4], 2.75 µM.

Turning to `O=C(Nc1c[nH]nc1-c1nc2cc(CN3CCOCC3)ccc2[nH]1)NC1CC1` [AT-9283], the Kd in test [1], in test [2], in test [5] and in test [4] was > 30 µM (inactive) in each case.

Take `NC(=O)Nc1cc(-c2cccc(F)c2)sc1C(=O)N[C@H]1CCCNC1` [AZD-7762]: the Kd in test [1] was > 30 µM (inactive); in test [2], > 30 µM (inactive); in test [5], > 30 µM (inactive); in test [3], 0.035 µM (active); in test [4] it was > 30 µM (inactive).

Consider `Cc1cc(C(=O)NOCCO)c(Nc2ccc(I)cc2F)n(C)c1=O` [AZD-8330], for which the Kd in test [1], in test [2], in test [5], in test [3] and in test [4] was > 30 µM (inactive) in each case.

Turning to `Cn1cnc2c(F)c(Nc3ccc(Br)cc3F)c(C(=O)NOCCO)cc21` [BINIMETINIB], the Kd in test [1], in test [2], in test [5], in test [3] and in test [4] was > 30 µM (inactive) in each case.

In the case of `CCn1c(C(=O)N(C2CC2)C2CC2)cc2c3c(ncn3C)c(Nc3cc(C)n(C)n3)nc21` [BMS-911543], the Kd in test [1], in test [2], in test [5], in test [3] and in test [4] was > 30 µM (inactive) throughout.

In the case of `COc1cc2ncnc(Oc3cccc(NC(=O)Nc4cc(C(C)(C)C(F)(F)F)on4)c3)c2cc1OC` [CEP-32496], the Kd in test [1], in test [2], in test [5], in test [3] and in test [4] was > 30 µM (inactive) throughout.

With `Cc1cc(Nc2ncc(Cl)c(Nc3ccccc3S(=O)(=O)C(C)C)n2)c(OC(C)C)cc1C1CCNCC1` [CERITINIB], the Kd in test [1], in test [2], in test [5], in test [3] and in test [4] was > 30 µM (inactive) in each case.

In the case of `COCC(=O)NC/C=C/c1ccc2ncnc(Nc3ccc(Oc4ccc(C)nc4)c(C)c3)c2c1` [CP-724714], the Kd in test [1], in test [2], in test [5], in test [3] and in test [4] was > 30 µM (inactive) in each case.

Take `C#Cc1cccc(Nc2ncnc3cc(OC)c(OCCCCCCC(=O)NO)cc23)c1` [CUDC-101]: the Kd in test [1], in test [2], in test [5], in test [3] and in test [4] was > 30 µM (inactive) each time.

As for `CCS(=O)(=O)N1CCN(c2ccc(Nc3ncc(C(N)=O)c(NC4CC4)n3)cc2)CC1` [Cerdulatinib Hydrochloride], the Kd in test [1] was > 30 µM (inactive); in test [2], > 30 µM (inactive); in test [3], 3.06 µM (active); in test [4], > 30 µM (inactive).

On to `CC(C)(C)c1nc(-c2cccc(NS(=O)(=O)c3c(F)cccc3F)c2F)c(-c2ccnc(N)n2)s1` [DABRAFENIB], for which the Kd in test [1], in test [5], in test [3] and in test [4] was > 30 µM (inactive) each time.

Take `O=C(Nc1cc(C(F)(F)F)cc(C(F)(F)F)c1)c1cc(Cl)ccc1O` [IMD-0354]: the Kd in test [1], in test [5], in test [3] and in test [4] was > 30 µM (inactive) throughout.

Take `CCOc1cc2ncc(C#N)c(Nc3ccc(F)c(Cl)c3)c2cc1NC(=O)/C=C/CN(C)C` [PELITINIB]: the Kd in test [1], in test [5], in test [3] and in test [4] was > 30 µM (inactive) throughout.

Take `CC(=O)NCC(=O)N1[C@@H]2CC[C@H]1c1ccc(Nc3ncc(C(F)(F)F)c(NC4CCC4)n3)cc12` [PF-03814735]: the Kd in test [1], in test [5] and in test [4] was > 30 µM (inactive) throughout.
